From patent US9732088B2, “C2-carbocyclic iminothiazine dioxides as BACE inhibitors, compositions, and their use” (Merck Sharp & Dohme Corp., priority 2014, dated 2017)

Tests used:
[1] = target: soluble human BACE-1 catalytic domain (Homo sapiens (Human), UniProt P56817); experiment: BACE-1 Ki Assay (BACE-1 HTRF FRET Assay); type: biochemical; conditions: Assay 1; Ki calculated from IC50 by Cheng-Prusoff
Procedure: Assay 1: BACE-1 Ki Assay (BACE-1 HTRF FRET Assay)
The compounds of the invention were determined to be potent inhibitors of BACE-1 using the following assay.
The following reagents were used in this assay. Na^+-Acetate pH 5.0; 1% Brij-35; Glycerol; Dimethyl Sulfoxide (DMSO); Recombinant human soluble BACE-1 catalytic domain (>95% pure); APP Swedish mutant peptide substrate (QSY7-APP^swe-Eu): QSY7-[…]-Europium-amide.
A homogeneous time-resolved FRET assay can be used to determine IC50 values for inhibitors of the soluble human BACE-1 catalytic domain. This assay monitors the increase of 620 nm fluorescence that resulted from BACE-1 cleavage of an APPswedish APP^swe mutant peptide FRET substrate (QSY7-[…]-Europium-amide). This substrate contains an N-terminal QSY7 moiety that serves as a quencher of the C-terminal Europium fluorophore (620 nm Em). In the absence of enzyme activity, 620 nm fluorescence is low in the assay and increased linearly over 3 hours in the presence of uninhibited BACE-1 enzyme. Inhibition of BACE-1 cleavage of the QSY7-APP^swe-Eu substrate by inhibitors is manifested as a suppression of 620 nm fluorescence.
Varying concentrations of inhibitors at 3× the final desired concentration in a volume of […] are preincubated with purified human BACE-1 catalytic domain (3 nM in 10 μl) for 30 minutes at 30° C. in reaction buffer containing 20 mM Na-Acetate pH 5.0, 10% glycerol, 0.1% Brij-35 and 7.5% DSMO. Reactions are initiated by addition of 10 μl of 600 nM QSY7-APP^swe-Eu substrate (200 nM final) to give a final reaction volume of 30 μl in a 384 well Nunc HTRF plate. The reactions are incubated at 30° C. for 1.5 hours. The 620 nm fluorescence is then read on a Rubystar HTRF plate reader (BMG Labtechnologies) using a […] delay followed by a 400 millisecond acquisition time window. Inhibitor IC50 values are derived from non-linear regression analysis of concentration response curves. Ki values are then calculated from IC50 values using the Cheng-Prusoff equation using a previously determined […] of 8 μM for the QSY7-APP^swe-Eu substrate at BACE-1. The example compounds of the invention were measured in this assay.

[2] = target: purified human autoBACE-2 (Homo sapiens (Human), UniProt Q9Y5Z0); experiment: BACE-2 Assay (BACE-HTRF assay); type: biochemical; conditions: Assay 2; Ki calculated from IC50 by Cheng-Prusoff; read-out: BACE2 Ki
Procedure: The compounds of the invention were determined to be potent inhibitors of BACE-2 using the following assay. Inhibitor IC50s at purified human autoBACE-2 are determined in a time-resolved endpoint proteolysis assay that measures hydrolysis of the QSY7-[…]-Eu-amide FRET peptide substrate (BACE-HTRF assay). BACE-mediated hydrolysis of this peptide results in an increase in relative fluorescence (RFU) at 620 nm after excitation with 320 nm light Inhibitor compounds, prepared at 3× the desired final concentration in 1×BACE assay buffer (20 mM sodium acetate pH 5.0, 10% glycerol, 0.1% Brij-35) supplemented with 7.5% DMSO are pre-incubated with an equal volume of autoBACE-2 enzyme diluted in 1×BACE assay buffer (final enzyme concentration 1 nM) in black 384-well NUNC plates for 30 minutes at 30° C. […] DMSO is present at […] final concentration in the assay. Following laser excitation of sample wells at 320 nm, the fluorescence signal at 620 nm is collected for 400 ms following a 50 μs delay on a RUBYstar HTRF plate reader (BMG Labtechnologies). Raw RFU data is normalized to maximum (1.0 nM BACE/DMSO) and minimum (no enzyme/DMSO) RFU values. IC50 values are determined by nonlinear regression analysis (sigmoidal dose response, variable slope) of percent inhibition data with minimum and maximum values set to 0 and 100 percent respectively. Similar IC50s are obtained when using raw RFU data. The Ki values are calculated from the IC50 using the Cheng-Prusoff equation.

BACE-1 = BACE-1 (Homo sapiens (Human), UniProt P56817); experiment: BACE-1 Cellular Assay (Aβ in HEK293-APPswe/lon cells); type: cell-based; conditions: 4 hours
Procedure: Assay 3: BACE-1 Cellular Assay
Certain compounds of the invention, identified in the tables herein, were determined to be potent inhibitors of BACE-1 in the following cellular assay. HEK293 cells are obtained from the American Type Culture Collection (ATCC) and stably transfected with the human amyloid precursor protein cDNA containing the FAD Swedish (enhances β-secretase processing) and London (enhances Aβ42 cleavage) mutations. A HEK293 stable clone with Aβ expression (HEK293-APP^swe/lon) is identified and maintained at 37° C., 5% CO2 in the ATCC-recommended growth media supplemented with hygromycin. […] Aβ40 or Aβ42 are measured in 15 μl of media using a mesoscale based ELISA assay. Full length Aβ40 and Aβ42 peptides are captured with the N-terminal specific biotinylated-WO2 monoclonal antibody and detected using either the ruthenylated Aβ40 C-terminal specific monoclonal antibody, G2-10 or the ruthenylated Aβ42 C-terminal specific monoclonal antibody G2-11 respectively. Raw electrochemiluminescnce values are measured using a Mesoscale Sector Imager plate reader and are plotted as a function of compound concentration. IC50 values are interpolated from the data using nonlinear regression analysis (Sigmoidal dose response fit with variable slope) of the data using GraphPad Prism software.

[3] = target: purified human Cathepsin-D (Homo sapiens (Human), UniProt P07339); experiment: Cathepsin-D Assay (time-resolved FRET); type: biochemical; conditions: Assay 4; Ki calculated from IC50 by Cheng-Prusoff;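 further: Europium-labelled peptide substrate with QSY7 quencher, cleavage read as 620 nm fluorescence after 30 min preincubation then 30 min reaction at 30 °C, pH 5.0, inhibition lowers signal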
purified human Cathepsin-D, sequence (P07339 65-412): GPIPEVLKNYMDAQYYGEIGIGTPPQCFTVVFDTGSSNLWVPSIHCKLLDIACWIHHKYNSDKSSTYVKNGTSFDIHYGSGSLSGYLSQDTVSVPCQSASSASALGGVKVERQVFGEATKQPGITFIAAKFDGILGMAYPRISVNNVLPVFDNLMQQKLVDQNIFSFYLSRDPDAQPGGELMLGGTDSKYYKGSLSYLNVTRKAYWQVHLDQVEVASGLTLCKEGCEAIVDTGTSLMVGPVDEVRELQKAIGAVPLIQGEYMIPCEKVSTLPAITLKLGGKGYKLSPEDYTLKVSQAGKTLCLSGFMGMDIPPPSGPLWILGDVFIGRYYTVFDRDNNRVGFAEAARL
Procedure: Assay 4: Cathepsin-D Assay
This substrate contains an C-terminal QSY7 moiety that serves as a quencher of the N-terminal Europium fluorophore (620 nm Em). In the absence of enzyme activity, 620 nm fluorescence is low in the assay and increased linearly over 1 hour in the presence of uninhibited Cathepsin-D enzyme. Inhibition of Cathespin D cleavage of the Eu-Aspartyl Protease-QSY7 substrate by inhibitors is manifested as a suppression of 620 nm fluorescence.
Varying concentrations of inhibitors in a volume of 100 nl are preincubated with purified human Cathepsin-D (0.1 nM in 10 μl) for 30 minutes at 30° C. in reaction buffer containing 100 mM Na-Acetate pH 5.0, and 0.02% Brij-35. Reactions are initiated by addition of 10 μl of 100 nM Eu-Aspartyl Protease-QSY7 substrate (50 nM final) to give a final reaction volume of 20 μl in a 384 well Nunc HTRF plate. The reactions are incubated at 30° C. for 30 minutes. The 620 nm fluorescence is then read on a Envision Multilabel plate reader (Perkin-Elmer) using a 200 microsecond delay followed by a 400 microsecond acquisition time window. Inhibitor IC50 values are derived from non-linear regression analysis of concentration response curves.

purified human autoBACE-2, sequence (Q9Y5Z0 63-466): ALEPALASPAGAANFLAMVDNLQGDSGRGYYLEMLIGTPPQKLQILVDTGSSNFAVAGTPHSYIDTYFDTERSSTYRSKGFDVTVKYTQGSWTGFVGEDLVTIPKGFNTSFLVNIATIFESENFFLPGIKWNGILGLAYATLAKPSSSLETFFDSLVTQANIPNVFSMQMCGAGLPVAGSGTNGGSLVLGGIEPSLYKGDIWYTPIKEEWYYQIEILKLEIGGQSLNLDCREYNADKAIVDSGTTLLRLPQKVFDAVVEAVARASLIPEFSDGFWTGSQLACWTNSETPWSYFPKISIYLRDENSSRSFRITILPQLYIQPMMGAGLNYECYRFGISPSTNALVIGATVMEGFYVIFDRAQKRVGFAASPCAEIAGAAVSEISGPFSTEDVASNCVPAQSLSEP
BACE-1, sequence (P56817 46-501): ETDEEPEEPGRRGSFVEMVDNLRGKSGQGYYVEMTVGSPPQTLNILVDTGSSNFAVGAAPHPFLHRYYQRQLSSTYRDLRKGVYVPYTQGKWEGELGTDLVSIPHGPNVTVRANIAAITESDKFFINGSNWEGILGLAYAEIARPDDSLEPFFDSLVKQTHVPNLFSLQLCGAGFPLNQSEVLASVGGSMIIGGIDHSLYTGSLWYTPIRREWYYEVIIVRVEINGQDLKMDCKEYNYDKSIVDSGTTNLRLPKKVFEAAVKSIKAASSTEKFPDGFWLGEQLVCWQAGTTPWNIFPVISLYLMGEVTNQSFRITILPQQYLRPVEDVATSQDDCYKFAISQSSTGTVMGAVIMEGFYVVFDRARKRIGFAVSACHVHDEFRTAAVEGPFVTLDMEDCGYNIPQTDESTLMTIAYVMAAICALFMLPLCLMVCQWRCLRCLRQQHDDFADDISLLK
soluble human BACE-1 catalytic domain, sequence (P56817 75-416): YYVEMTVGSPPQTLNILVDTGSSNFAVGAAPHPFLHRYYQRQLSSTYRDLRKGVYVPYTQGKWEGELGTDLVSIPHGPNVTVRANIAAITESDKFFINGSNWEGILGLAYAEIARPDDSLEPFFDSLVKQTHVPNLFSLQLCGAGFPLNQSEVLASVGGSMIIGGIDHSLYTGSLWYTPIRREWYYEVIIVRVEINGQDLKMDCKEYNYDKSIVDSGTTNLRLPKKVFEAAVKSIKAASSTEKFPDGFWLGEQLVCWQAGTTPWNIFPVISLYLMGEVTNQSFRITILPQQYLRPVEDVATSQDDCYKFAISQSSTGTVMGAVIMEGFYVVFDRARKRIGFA

| SMILES | Ki [1] | Ki [2] | IC50 (BACE-1) | Ki [3] |
| --- | --- | --- | --- | --- |
| C[C@@]1(c2nc(Nc3nccc4cc(C#N)cnc34)ccc2F)CS(=O)(=O)[C@@](CF)(C2CC2)C(N)=N1 [Example 2, 8-({6-[(3R,6S)-6-cyclopropyl-6-(fluoromethyl)-5-imino-3-methyl-1,1-dioxidothiomoipholin-3-yl]-5-fluoropyridin-2-yl}amino)-1,7-naphthyridine-3-carbonitrile] | 15 nM | 6.9 nM | 52 nM | 159 nM |
| C[C@@]1(c2cc(Nc3nccc4cc(Br)cnc34)ncc2F)CS(=O)(=O)[C@@](C)(C2CC2)C(N)=N1 [Example 3, 3-bromo-N-{4-[(3R,6S)-6-cyclopropyl-5-imino-3,6-dimethyl-1,1-dioxidothiomorpholin-3-yl]-5-fIuoropyridin-2-yl}-1,7-naphthyridin-8-amine] | 1.5 nM | 0.35 nM | 25 nM | 5530 nM |
| C[C@@]1(c2cc(Nc3nccc4cc(C#N)cnc34)ncc2F)CS(=O)(=O)[C@@](C)(C2CC2)C(N)=N1 [Example 4, 8-({4-[(3R,6S)-6-cyclopropyl-5-imino-3,6-dimethyl-1,1-dioxidothiomorpholin-3-yl]-5-fluoropyridin-2-yl}amino)-1,7-naphthyridine-3-carbonitrile] | 3.8 nM | 1.5 nM | 19 nM | 6650 nM |
| COc1cnc2c(Nc3ccc(F)c([C@]4(C)CS(=O)(=O)[C@@](CF)(C5CC5)C(N)=N4)c3)nccc2n1 [Example 8, N-{3-[(3R,6S)-6-cyclopropyl-6-(fluoromethyl)-5-imino-3-methyl-1,1-dioxidothiomoipholin-3-yl]-4-fluorophenyl}-2-methoxypyrido[3,4-b]pyrazin-5-amine] | 4.5 nM | 4.2 nM | 91 nM | 4010 nM |
| COc1cnc2c(Nc3cc([C@]4(C)CS(=O)(=O)[C@@](C)(C5CC5)C(N)=N4)c(F)cn3)nccc2n1 [Example 9, N-{4-[(3R,6S)-6-cyclopropyl-5-imino-3,6-dimethyl-1,1-dioxidothiomorpholin-3-yl]-5-fluoropyridin-2-yl}-2-methoxypyrido[3,4-b]pyrazin-5-amine] | 13.6 nM | 1.3 nM | 111 nM | > 9400 nM |
| COc1cnc2c(Nc3cc([C@]4(C)CS(=O)(=O)[C@@](C)(C5CC5)C(N)=N4)c(F)cn3)ccnc2c1 [Example 21, (2S,5R)-2-cyclopropyl-5-(5-fluoro-2-((7-methoxy-1,5-naphthyridin-4-yl)amino)pyridin-4-yl)-3-imino-2,5-dimethylthiomorpholine 1,1-dioxide] | 5.3 nM | 1.9 nM | – | – |
| COc1cnc2c(Nc3cc([C@]4(C)CS(=O)(=O)[C@@](C)(C5CC5)C(N)=N4)c(F)cn3)ncnc2n1 [Example 23, (2S,5R)-2-cyclopropyl-5-(5-fluoro-2-((7-methoxypteridin-4-yl)amino)pyridin-4-yl)-3-imino-2,5-dimethylthiomorpholine 1,1-dioxide] | 271 nM | 129 nM | – | > 9400 nM |
| C[C@@]1(c2cc(Nc3nccc4cc(F)cnc34)ncc2F)CS(=O)(=O)[C@@](C)(C2CC2)C(N)=N1 [Example 26, (3R,6S)-5-amino-6-cyclopropyl-3-(5-fluoro-2-((3-fluoro-1,7-naphthyridin-8-yl)amino)pyridin-4-yl)-3,6-dimethyl-3,6-dihydro-2H-1,4-thiazine 1,1-dioxide] | – | – | 250 nM | – |
| CC#CCOc1cnc2c(Nc3cc([C@]4(C)CS(=O)(=O)[C@@](C)(C5CC5)C(N)=N4)c(F)cn3)nccc2n1 [Example 28, (3R,6S)-5-amino-3-(2-((2-(but-2-yn-1-yloxy)pyrido[3,4-b]pyrazin-5-yl)amino)-5-fluoropyridin-4-yl)-6-cyclopropyl-3,6-dimethyl-3,6-dihydro-2H-1,4-thiazine 1,1-dioxide] | – | – | 6.3 nM | – |
| CC#CCOc1cnc2c(Nc3cnc(F)c([C@]4(C)CS(=O)(=O)[C@@](C)(C5CC5)C(N)=N4)c3)nccc2n1 [Example 29, (3R,6S)-5-amino-3-(5-((2-(but-2-yn-1-yloxy)pyrido[3,4-b]pyrazin-5-yl)amino)-2-fluoropyridin-3-yl)-6-cyclopropyl-3,6-dimethyl-3,6-dihydro-2H-1,4-thiazine 1,1-dioxide] | – | – | 30 nM | – |
| CC#CCOc1cnc2c(Nc3cnc(F)c([C@]4(C)CS(=O)(=O)[C@@](C)(C5CC5)C(N)=N4)c3)nccc2c1 [Example 30, (3R,6S)-5-amino-3-(5-((3-(but-2-yn-1-yloxy)-1,7-naphthyridin-8-yl)amino)-2-fluoropyridin-3-yl)-6-cyclopropyl-3,6-dimethyl-3,6-dihydro-2H-1,4-thiazine 1,1-dioxide] | – | – | 28 nM | – |
| C[C@@]1(c2cc(Nc3ccnc4cccnc34)ncc2F)CS(=O)(=O)[C@@](C)(C2CC2)C(N)=N1 [Example 31, (3R,6S)-3-(2-((1,5-naphthyridin-4-yl)amino)-5-fluoropyridin-4-yl)-5-amino-6-cyclopropyl-3,6-dimethyl-3,6-dihydro-2H-1,4-thiazine 1,1-dioxide] | – | – | 180 nM | – |
| C[C@@]1(c2cc(Nc3ccnc4cc(F)cnc34)ncc2F)CS(=O)(=O)[C@@](C)(C2CC2)C(N)=N1 [Example 34, (3R,6S)-5-amino-6-cyclopropyl-3-(5-fluoro-2-((7-fluoro-1,5-naphthyridin-4-yl)amino)pyridin-4-yl)-3,6-dimethyl-3,6-dihydro-2H-1,4-thiazine 1,1-dioxide] | – | – | 32 nM | – |
| COc1cnc2c(Nc3ccc(F)c([C@]4(C)CS(=O)(=O)[C@@](C)(C5CC5)C(N)=N4)c3)ccnc2n1 [Example 37, (3R,6S)-5-amino-6-cyclopropyl-3-(2-fluoro-5-((3-methoxypyrido[2,3-b]pyrazin-8-yl)amino)phenyl)-3,6-dimethyl-3,6-dihydro-2H-1,4-thiazine 1,1-dioxide] | – | – | 23 nM | – |
| C[C@@]1(c2cc(Nc3ncnc4cc(C#N)cnc34)ncc2F)CS(=O)(=O)[C@@](C)(C2CC2)C(N)=N1 [Example 39, 4-((4-((3R,6S)-5-amino-6-cyclopropyl-3,6-dimethyl-1,1-dioxido-3,6-dihydro-2H-1,4-thiazin-3-yl)-5-fluoropyridin-2-yl)amino)pyrido[3,2-d]pyrimidine-7-carbonitrile] | – | – | 130 nM | – |
| CC1(C)C(=N)N[C@](C)(c2nc(Nc3cccc(Cl)c3F)ccc2F)CS1(=O)=O [WO′426 Ex. 30, reference compound] | 3200 nM | 862 nM | – | – |
| COc1ccccc1Nc1ccc(F)c([C@]2(C)CS(=O)(=O)C(C)(C)C(=N)N2)n1 [WO′426 Ex. 30a, reference compound] | 5280 nM | 517 nM | – | – |
